# Source: patent US7482360B2, “Fused tetracyclic mGluR1 antagonists as therapeutic agents” (Schering Corporation, priority 2005, dated 2009)
# Where two headings read alike, the source gives them in different places.
# Target: T1, hmGluR1 receptor (Homo sapiens, UniProt Q13255)
# T1 construct: expressed in transfected cells; host or cells: CHO
# Assay: IC50 Determination: intracellular calcium mobilization (FLIPR) in a CHO cell line stably expressing hmGluR1 receptor, against Quisqualate
# Format: cell-based
# Details: CHO cells expressing hmGluR1, against Quisqualate 1 μM (EC80), compounds added 10 minutes before agonist
# Protocol: A CHO cell line stably expressing hmGluR1 receptor was established. One day prior to assay, cells were split in growth media at concentration of 50,000 cells/well in a volume of 100 μl and seeded into black clear-bottom 96-well plates. After two to six hours, when cells were well attached to the plate, growth medium was replaced with assay medium (100 μL) consisting of DMEM high glucose, supplemented with GPT (1 U/mL) and sodium pyruvate, 1 mM. Following overnight incubation, medium was discarded and cells were loaded for 2 hours with dye from the Calcium 3 Assay Reagent Kit (Molecular Devices, # R8033), prepared according to manufacturers' instructions. A 96-tip pipettor/fluorometric imaging plate reader (FLIPR 384; Molecular Devices) was used and intracellular calcium mobilization was measured by increases in fluorescence upon agonist Quisqualate stimulation following 6 sec-baseline measurement. Test compounds were added 10 minutes before Quisqualate. IC50 determinations for tested compounds were generated against Quisqualate 1 μM corresponding to EC80 value in a standard dose response curve.
# T1 sequence (Q13255 19-1194): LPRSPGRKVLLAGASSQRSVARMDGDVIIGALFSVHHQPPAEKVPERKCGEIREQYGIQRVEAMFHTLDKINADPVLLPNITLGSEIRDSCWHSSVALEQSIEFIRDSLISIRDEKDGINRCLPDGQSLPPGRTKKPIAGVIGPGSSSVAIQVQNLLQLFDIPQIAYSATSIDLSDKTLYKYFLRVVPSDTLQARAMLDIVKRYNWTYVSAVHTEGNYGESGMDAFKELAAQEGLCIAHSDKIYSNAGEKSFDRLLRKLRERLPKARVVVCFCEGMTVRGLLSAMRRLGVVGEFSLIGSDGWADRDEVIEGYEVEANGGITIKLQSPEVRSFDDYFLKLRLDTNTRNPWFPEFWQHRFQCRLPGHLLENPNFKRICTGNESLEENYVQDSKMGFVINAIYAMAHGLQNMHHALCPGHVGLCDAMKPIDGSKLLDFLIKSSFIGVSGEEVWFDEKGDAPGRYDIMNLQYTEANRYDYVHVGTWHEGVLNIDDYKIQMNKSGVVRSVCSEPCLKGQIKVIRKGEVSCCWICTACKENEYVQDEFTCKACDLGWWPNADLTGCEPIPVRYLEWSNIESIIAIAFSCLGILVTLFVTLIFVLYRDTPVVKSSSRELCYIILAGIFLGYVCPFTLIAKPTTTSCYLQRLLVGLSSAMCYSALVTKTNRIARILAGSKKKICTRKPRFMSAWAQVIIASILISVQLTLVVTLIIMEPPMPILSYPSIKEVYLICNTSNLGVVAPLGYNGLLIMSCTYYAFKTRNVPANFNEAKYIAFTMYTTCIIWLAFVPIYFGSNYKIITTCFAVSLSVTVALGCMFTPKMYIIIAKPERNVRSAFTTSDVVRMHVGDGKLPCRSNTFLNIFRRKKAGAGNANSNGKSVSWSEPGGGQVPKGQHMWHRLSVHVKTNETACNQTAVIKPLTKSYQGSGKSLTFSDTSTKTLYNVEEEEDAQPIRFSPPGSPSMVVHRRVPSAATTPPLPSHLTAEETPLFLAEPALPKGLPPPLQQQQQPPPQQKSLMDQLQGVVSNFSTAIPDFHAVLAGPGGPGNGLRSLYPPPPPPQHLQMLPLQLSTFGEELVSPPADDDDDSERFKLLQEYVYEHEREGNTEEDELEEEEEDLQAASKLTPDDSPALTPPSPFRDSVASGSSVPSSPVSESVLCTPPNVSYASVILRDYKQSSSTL
IC50 (read-out: mGluR1 IC50),IC50 (read-out: mGluR1 IC50 rating),SMILES
2.2 nM,< 20 nM,C[C@H]1CNc2c(cnc3sc4c(=O)n(-c5ccc(Cl)cc5)cnc4c23)O1 [Compound 38c]
5.3 nM,< 20 nM,Cc1ccc(-n2cnc3c(sc4ncc5c(c43)NC[C@@H](C)O5)c2=O)cc1 [Compound 38g]
2.5 nM,< 20 nM,COc1ccc(-n2cnc3c(sc4ncc5c(c43)NCCO5)c2=O)cc1 [Compound 38i]
1.4 nM,< 20 nM,C[C@@H]1CNc2c(cnc3sc4c(=O)n(-c5ccc(Cl)cc5)cnc4c23)O1 [Compound 38b]
–,20 to 100 nM,C[C@@H]1COc2cnc3sc4c(=O)n(-c5ccc(Cl)cc5)cnc4c3c2N1 [Compound 38d]
5.7 nM,< 20 nM,Cc1ccc(-n2cnc3c(sc4ncc5c(c43)N(C)CCO5)c2=O)cc1 [Compound 38f]
12 nM,< 20 nM,C[C@H]1COc2cnc3sc4c(=O)n(-c5ccc(Cl)cc5)cnc4c3c2N1 [Compound 38e]
2.9 nM,< 20 nM,O=c1c2sc3ncc4c(c3c2ncn1-c1ccc(Cl)cc1)NCCO4 [Compound 38a]
2.2 nM,< 20 nM,Cc1ccc(-n2cnc3c(sc4ncc5c(c43)NCCO5)c2=O)cc1 [Compound 38h]

# The next lines start with the compound.
SMILES,IC50 (read-out: mGluR1 IC50),IC50 (read-out: mGluR1 IC50 rating)
O=c1c2sc3ncc(Br)c(NCCO)c3c2ncn1-c1ccc(Cl)cc1 [Compound 37a],14.2 nM,< 20 nM
Cc1ccc(-n2cnc3c(sc4ncc5ccn(C)c5c43)c2=O)cc1 [Compound 31],–,20 to 100 nM
C[C@H](CO)Nc1c(Br)cnc2sc3c(=O)n(-c4ccc(Cl)cc4)cnc3c12 [Compound 37d],–,> 1000 nM
Cc1ccc(-n2cnc3c(sc4ncc5cn[nH]c5c43)c2=O)cc1 [Compound 20b],17 nM,< 20 nM
O=c1c2sc3ncc4nn[nH]c4c3c2ncn1C1CCCCC1 [Compound 13],–,100 to 1000 nM
Cc1ccc(-n2cnc3c(sc4ncc5sc(=S)[nH]c5c43)c2=O)cc1 [Compound 28],–,100 to 1000 nM
O=c1c2sc3ncc4cc[nH]c4c3c2ncn1-c1ccc(Cl)cc1 [Compound 34],0.4 nM,< 20 nM
Cn1cnc2cnc3sc4c(=O)n(-c5ccc(Cl)cc5)cnc4c3c21 [Compound 36],9.8 nM,< 20 nM
Cn1ccc2cnc3sc4c(=O)n(C5CCCCC5)cnc4c3c21 [Compound 6],–,20 to 100 nM
Cc1ccc(-n2cnc3c(sc4ncc5cc[nH]c5c43)c2=O)cc1 [Compound 27a],0.7 nM,< 20 nM
C[C@H](O)CNc1c(Br)cnc2sc3c(=O)n(-c4ccc(Cl)cc4)cnc3c12 [Compound 37c],–,> 1000 nM
Cn1cnc2cnc3sc4c(=O)n(C5CCCCC5)cnc4c3c21 [Compound 9],–,20 to 100 nM
Cn1ncc2cnc3sc4c(=O)n(C5CCCCC5)cnc4c3c21 [Compound 4],–,100 to 1000 nM
Cc1ccc(-n2cnc3c(sc4ncc5c(c43)OCC5)c2=O)cc1 [Compound 24],–,100 to 1000 nM
O=c1c2sc3ncc4nc[nH]c4c3c2ncn1-c1ccc(Cl)cc1 [Compound 35],6 nM,< 20 nM
O=c1c2sc3ncc4cn[nH]c4c3c2ncn1-c1ccc(Cl)cc1 [Compound 20a],38 nM,20 to 100 nM
Cc1ccc(-n2cnc3c(sc4ncc5sc(=O)[nH]c5c43)c2=O)cc1 [Compound 30],–,100 to 1000 nM
COc1ccc(-n2cnc3c(sc4ncc5cc[nH]c5c43)c2=O)cc1 [Compound 27b],4.9 nM,< 20 nM
C[C@@H](O)CNc1c(Br)cnc2sc3c(=O)n(-c4ccc(Cl)cc4)cnc3c12 [Compound 37b],–,> 1000 nM
Cc1ccc(-n2cnc3c(sc4ncc(Br)c(N(C)CCO)c43)c2=O)cc1 [Compound 37f],–,100 to 1000 nM
O=c1c2sc3ncc4nc[nH]c4c3c2ncn1C1CCCCC1 [Compound 12],23 nM,20 to 100 nM
CSc1nc2c(cnc3sc4c(=O)n(-c5ccc(C)cc5)cnc4c32)s1 [Compound 29],–,100 to 1000 nM
C[C@@H](CO)Nc1c(Br)cnc2sc3c(=O)n(-c4ccc(Cl)cc4)cnc3c12 [Compound 37e],–,> 1000 nM
